Measured values taken from patent US11332438B2, “Creatine prodrugs, compositions and methods of use thereof” (Ultragenyx Pharmaceutical Inc., priority 2017, dated 2022).
“Also recorded” adds a separate entry of the source.

How the values were obtained:
[1] = Chemical stability in phosphate buffered saline (PBS); type: physicochemical; details: Table 2A, 50 μM prodrug
Procedure, shortened: (§1)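 Incubations used 50 μM compound at 37 °C in phosphate buffered saline, fasted simulated intestinal fluid without pancreatin, or fasted simulated gastric fluid without pepsin.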

[2] = Chemical stability in simulated intestinal fluid (SIF) without pancreatin; type: physicochemical; details: Table 2A, 50 μM prodrug
Experimental: Chemical stability of creatine prodrugs in phosphate buffered saline (PBS), simulated intestinal fluid (SIF) without pancreatin, simulated gastric fluid (SGF) without pepsin were determined by LC-UV, LC-CAD, LC-UV-CAD or LC-MS/MS as appropriate. Creatine prodrugs of the present disclosure (50 μM) were incubated at 37° C. according to described protocols and prodrug levels were compared between t=0, t=15, t=60, and t=120 mins by peak area ratio to determine the percentage remained at t=120 mins (2 h).
Protocol for PBS, SIF and SGF stability for screening:
Prodrugs (50 μM) were incubated in PBS, FaSSIF (Biorelevant) or FaSSGF (Biorelevant) at 37° C.

[3] = Chemical stability in simulated gastric fluid (SGF) without pepsin; type: physicochemical; details: Table 2A, 50 μM prodrug
Procedure, shortened: as §1

[4] = biological target: T1, recombinant human FAAH enzyme (rFAAH) (Homo sapiens, UniProt O00519); test: Direct prodrug cleavage with recombinant human FAAH enzyme (rFAAH): d3-Cr release and d3-Crn cyclization; type: biochemical; details: 200 μM prodrug, 3 h, % of nominal input; for Prodrug Cleavage rFAAH net d3-Cr release: negative control subtracted
T1 sequence (O00519 1-579): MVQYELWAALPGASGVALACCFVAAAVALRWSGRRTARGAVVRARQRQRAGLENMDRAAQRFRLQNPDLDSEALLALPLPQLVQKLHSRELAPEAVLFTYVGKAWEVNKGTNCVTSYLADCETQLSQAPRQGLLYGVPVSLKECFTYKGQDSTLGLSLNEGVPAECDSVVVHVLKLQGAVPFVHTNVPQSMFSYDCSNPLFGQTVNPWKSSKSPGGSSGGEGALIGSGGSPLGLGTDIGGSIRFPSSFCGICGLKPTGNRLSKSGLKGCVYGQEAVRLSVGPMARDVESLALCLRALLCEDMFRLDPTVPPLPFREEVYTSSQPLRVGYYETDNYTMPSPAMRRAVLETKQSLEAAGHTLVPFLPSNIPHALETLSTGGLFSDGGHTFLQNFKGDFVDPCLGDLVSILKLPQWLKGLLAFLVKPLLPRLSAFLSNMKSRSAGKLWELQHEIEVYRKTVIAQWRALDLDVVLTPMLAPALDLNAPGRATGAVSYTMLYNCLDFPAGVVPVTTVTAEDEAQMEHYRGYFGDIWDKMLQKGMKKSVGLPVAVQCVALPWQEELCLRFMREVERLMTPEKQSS
Experimental: (§2) For assessment of the ability of prodrugs to release creatine, and to release creatine preferentially to unwanted cyclization to creatinine, d3-labeled (deuterium labeled methyl group) prodrugs are incubated with brain homogenates (e.g., mouse, human) specially prepared to preserve FAAH activity or with rFAAH for direct cleavage study. The use of d3-labelled prodrugs is essential in order to distinguish prodrug-derived creatine (d3-creatine) from high concentrations of endogenous (non-labeled) creatine. […] Prodrugs are tested at final concentrations of 20 μM and 200 μM. Approximately 3-4 mg of homogenate is used for each reaction. Co-factor (NADPH) is included at a final concentration of 1 mM. FAAH activity is confirmed by conversion of 7-amino-4-methyl Coumarin-Arachidonamide to 7-amino-4-methyl Coumarin by fluorescent assay. Negative controls include incubations without brain homogenate/rFAAH (but with NADPH) or 65° C. heat inactivated brain homogenate/rFAAH to assess non-enzymatic prodrug cleavage under the conditions of the assay and FAAH inhibitor […] at the concentration of 1 μM. Prodrug incubations are prepared by addition of 8 μL of prodrug stock solution (500 or 5000 μM in DMSO or DMSO/methanol) to assay buffered, followed by addition of brain homogenate/rFAAH. […] The samples are centrifuged at 15890×g for 10 minutes at 4° C., followed by transfer of the supernatants for storage at −20° C. pending LC-MS/MS analysis. Sample supernatants are analyzed by LC-MS/MS for determination of d3-prodrug, d3-creatine and d3-creatinine levels.
(§3) Deuterated creatine prodrugs were tested in 3 different in vitro assays to assess d3-creatine (d3-Cr) release and cyclization to form d3-creatinine (d3-Crn). These assays were 1) direct cleavage with recombinant human FAAH enzyme (rFAAH), 2) cleavage in mouse brain homogenates (MBH), and 3) human brain homogenates (HBH).
(§4) Creatine prodrug cleavage efficiency was determined by percentage of net d3-Cr release in μM (positive reaction subtracted from negative control of no brain homogenate/rFAAH or inactivated brain homogenate/rFAAH) over nominal input concentration of 200 μM prodrug at 3 h. Propensity for creatinine cyclization was determined by percentage of d3-Crn generated in μM in positive reaction over nominal input concentration of 200 μM prodrug at 3 h.

[5] = Prodrug cleavage in human brain homogenates (HBH): d3-Cr release and d3-Crn cyclization; type: in vitro ADME; details: for Prodrug Cleavage Human BH d3-Crn release / Prodrug Cleavage Human BH net d3-Cr release: 200 μM prodrug, 3 h, % of nominal input; for Prodrug Cleavage Human BH net d3-Cr release: negative control subtracted
Experimental: as §2, §3, §4

ARPE-19 cells = test: Creatine prodrug uptake and d3-creatine release in ARPE-19 cells (Table 4A); type: cell-based, human; details: 50 μM, 6 h, cytosol fraction, corrected for total protein
Experimental: At the end of the incubation, supernatant will be collected from each well to assess prodrug recovery. Cells are then washed 3× with PBS. Plates, prodrugs in supernatant, prodrugs in serum-free medium are stored at −80° C. until harvest (within 5 days). On the day of extraction, 130 uL of lysis buffer (10 mM Tris pH 7.4) with EDTA-free protease inhibitors is added to each well and cells are removed using a cell scraper. Lysates are further homogenized using a handheld pestle and then centrifuged at 16,000 g, […], for 10 minutes to collect cytosol fraction. Pellets will be stored at −80° C. until further analysis. A 4× volume of stop solution (80% ACN/20% water) will be added to the cytosol fraction, supernatant and medium. Samples will be centrifuged at 15,890 g (13,000 rpm) at 4° C. for 10 mins. Supernatant will be collected and stored at −80° C. within 5 days prior to LC-MS/MS analysis. Dosing solutions for each prodrug (10 μM) will be assayed to verify concentration. Cells alone with vehicle will serve as controls to assess background signal for LC-MS/MS. Two independent runs of experiment will be conducted.
Nine fatty acid amide creatine prodrugs were tested in human ARPE-19 cells to assess prodrug uptake and d3-Cr release inside the cells. 50 μM of prodrug was incubated in culture medium with the cells and the cells were harvested at 6 h. Quantitation of prodrugs, d3-Cr (d3-creatine) and d3-Cm (d3-creatinine) in the cytosol fraction was corrected for total protein concentration.

[6] = In vivo IV dosing in CrT KO mice: prodrug, d3-Cr and d3-Crn in brain (Table 5); details: brain, CrT KO mice
Experimental: A creatine prodrug is administered as an intravenous bolus injection to groups of three to six adult male CD1 mice at an appropriate creatine prodrug dose equivalent per kg body weight. Animals are conscious at the time of the experiment. Blood samples (0.3 mL) are obtained via a jugular vein cannula at intervals over 8 hours following IV dosing. Blood is processed into plasma, then the plasmais immediately frozen at −80° C. until analyzed by LC-MS/MS. Samples may also be taken form the CSF or other appropriate biological fluid. Brains were collected and flash frozen immediately in liquid nitrogen. Brains were homogenized in 100 mM KPI buffer with a cocktail of anti-proteases on the same day as the sample preparation required for LC-MS/MS analysis.
Several prodrugs with either free COOH group and ester linkage and macrocycles were selected for IV dosing in animal study to assess PK and d3-Cr release in brain in vivo. Prodrugs were IV dosed in CrT KO mice at 10, 15, or 25 mg/kg in animal studies. Mouse brain homogenates (MBH) were prepared from brains collected from mice after dosing. Levels of prodrug, d3-Cr and d3-Crn were quantified in brain and expressed in brain concentration (for macrocycle prodrugs) or AUC (for linear prodrugs) over time. Very few prodrugs were detected in MBH.

[7] = d3-Creatine and d3-creatinine concentration in CrT KO mice brain after IV bolus dose (FIGS. 3 and 4, Table 6); type: in vivo; details: CrT KO mice brain, 8 h after IV bolus dose
Experimental: The brain concentrations of d3-creatine and d3-creatinine was measured in CrT KO mice following 10 mg/kg single dose IV bolus dose of compound 14 and 15 (FIGS. 3 and 4). As shown by FIG. 3, brain d3-creatine concentration was higher following administration of compound 15 compared to compound 14. […] Without bound to any theory, the macrocyclic compound 15 prodrug reduces d3-creatine cyclization to d3-creatinine when compared to linear compound 14 prodrug.
The concentration of d3-creatine in CrT KO mice brain were also measured for other compounds disclosed in the present application as shown in Table 6. The concentrations of d3-creatine, d3-creatinine and creatine prodrugs are measured by LC-MS/MS. The brain sample is homogenized with 4× (weight to volume) of KPI 100 mM buffer containing anti-proteases and anti-phosphatases (if needed). 50 μl of brain homogenate is then de-proteinized using 4× volume/volume of a solution containing 80% acetonitrile and 20% water with bucetin, d5-Cr (internal standard). The plate is then spun at 4000 rpm, 10 minutes, 4° C. and samples are transferred to a new plate for bioanalysis. Each analyte in each sample was quantitated against a curve in matching biomatrix using an authentic standard.

[8] = in vitro cleavage assays (Table 3A)

Structure (SMILES) | Chemical Stability PBS % T0 at 2 hours at 37 °C. [1] [%] | Chemical Stability SIF, no enzyme % T0 at 2 hours at 37 °C. [2] [%] | Chemical Stability SGF, no enzyme % T0 at 2 hours at 37 °C. [3] [%] | Prodrug Cleavage rFAAH d3-Crn release [4] [%] | Prodrug Cleavage rFAAH net d3-Cr release [4] [%] | Prodrug Cleavage Human BH d3-Crn release [5] [%] | Prodrug Cleavage Human BH net d3-Cr release [5] [%] | d3-Cr, Cellular Uptake (ARPE-19 cells) [nmol/mg protien] | d3-Crn, Cellular Uptake (ARPE-19 cells) [nmol/mg protien] | prodrug, Cellular Uptake (ARPE-19 cells) [nmol/mg protien] | d3-Cr release in vitro (in words) [5, 8] | d3-Crn (creatinine) cyclization in vitro (in words) [5, 8] | d3-Cr/d3-Crn release ratio in vivo (in words) [6] | Concentration of d3-Cr in CrT KO mice brain [7]
[2H]C([2H])([2H])N(CC(=O)[O-])C(=N)NC(=O)CCCCCCCCCCCCC.[Li+] [Compound 7, Lithium 2-(1-trideuteriomethyl-3-tetradecanoylguanidino) Acetate] | 90 | 77 | 63 | 1.7 | 146.0 | 0.8 | 50.8 | 18.6 | <0.2 | 13.1 | – | – | – | –
Cl.[2H]C([2H])([2H])N(CC(=O)OC(C)C)C(=N)NC(=O)CCCCCCCCCCCC [Compound 10-HCl] | 11 | 46 | 83 | 217.0 | 1.2 | 251.5 | 4.3 | – | – | – | small amount of d3-Cr | predominantly cyclized into creatinine; also recorded: predominantly creatinine cyclization | favorable d3-Cr/d3-Crn ratio | –
[2H]C([2H])([2H])N1CC(=O)OC(CCCCC)CCCCCC(=O)NC1=N (stereo not drawn) [Compound FF, 5-Imino-4-trideuteriomethyl-13-pentyl-1-oxa-4,6-diazacyclotridecane-2,7-dione] | – | – | – | – | – | – | – | – | – | – | – | – | – | BLOQ
